# Assay results published in patent publication US5373020A, “Substituted 5-(2-((2-aryl-2-hydroxyethyl)amino)propyl)-1,3-benzodioxoles” (American Cyanamid Company, priority 1993, dated 1994).
# Read-outs that look alike come from different tables or passages of the source.
# Legend:
# β3-receptors = biological target: T1, β3-receptors (Rattus norvegicus, UniProt P26255); assay: Stimulation of adipocyte lipolysis (β3-effect); assay type: cell-based
# T1 construct: Rat epididymal fat pads were excised and placed in 0.9% saline; from tissue; host or cells: collagenase-isolated adipocytes from rat epididymal fat pads
# T1 sequence (P26255 whole entry): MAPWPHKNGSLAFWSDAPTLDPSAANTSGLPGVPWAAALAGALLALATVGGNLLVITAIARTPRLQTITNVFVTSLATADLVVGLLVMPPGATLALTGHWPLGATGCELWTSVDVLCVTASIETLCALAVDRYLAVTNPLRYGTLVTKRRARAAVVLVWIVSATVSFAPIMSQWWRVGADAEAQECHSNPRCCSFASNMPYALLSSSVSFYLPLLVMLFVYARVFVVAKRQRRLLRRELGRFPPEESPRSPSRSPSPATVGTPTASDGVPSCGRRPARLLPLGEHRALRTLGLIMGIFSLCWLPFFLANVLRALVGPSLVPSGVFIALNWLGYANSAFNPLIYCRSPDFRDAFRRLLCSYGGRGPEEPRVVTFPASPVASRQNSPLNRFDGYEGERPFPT
# Method: (§1) β-Adrenergic receptors can be divided into β1, β2 and β3 -subtypes. Activation of β1 -receptors invokes increases in heart rate while activation of β2 -receptors stimulates glycogen breakdown in muscle and thereby prevents glycogen synthesis. Activation of β3 -receptors stimulates lipolysis (the breakdown of adipose tissue triglycerides to glycerol and free fatty acids), and thereby promotes the loss of fat mass.
# The β3 -effect of the compounds was determined by their ability to stimulate adipocyte lipolysis. Rat epididymal fat pads were excised and placed in 0.9% saline. Four grams of tissue were transferred to a flask with 20 ml of aerated Krebs-Henseleit bicarbonate (KHB) buffer containing 3% fatty acid-free bovine serum albumin to which 75 mg of crude bacterial collagenase (Worthington) had been added. The tissue was incubated for about 45 minutes at 37° C. with gentle shaking. The cells were then washed three times with two volumes of KHB buffer, filtered through two layers of gauze, and brought to a final volume of 80 ml with KHB buffer. One ml aliquots of the cell suspension were added to plastic test tubes containing the appropriate additions of vehicle or compound. The cells were gassed for 1 minute with 95% O2 -5% CO2, capped, and incubated at 37° C. with continuous shaking for a total of 30 minutes. The reaction was stopped by adding 0.1 ml of 30% perchloric acid and 0.1 ml of chloroform. After centrifugation, 0.5 ml of supernatant was transferred to another test tube and neutralized with 0.04 ml of 3M K2 CO3 -0.5M triethanolamine. The amount-of glycerol generated from the hydrolysis of endogenous triglycerides was determined in a coupled-enzyme spectrophotometric assay. […] The test tubes were incubated for 40 minutes at 37° C. with constant shaking. […] This value was corrected for the amount of NADH generated in the absence of glycerol by incubating another aliquot of the neutralized extract with the same assay mixture but without glycerokinase.
# β2-receptors = biological target: T2, β2-receptors (Mus musculus, UniProt P18762); assay: Inhibition of insulin-mediated incorporation of 14C-glucose into glycogen in isolated soleus muscle (β2-effect); conditions: for β2 activity: CL1 vs BRL1 (FIG. 1), CL2 vs BRL2 (FIG. 2)
# T2 construct: Soleus muscle from mice were dissected; from tissue; host or cells: mouse soleus muscle
# T2 sequence (P18762 whole entry): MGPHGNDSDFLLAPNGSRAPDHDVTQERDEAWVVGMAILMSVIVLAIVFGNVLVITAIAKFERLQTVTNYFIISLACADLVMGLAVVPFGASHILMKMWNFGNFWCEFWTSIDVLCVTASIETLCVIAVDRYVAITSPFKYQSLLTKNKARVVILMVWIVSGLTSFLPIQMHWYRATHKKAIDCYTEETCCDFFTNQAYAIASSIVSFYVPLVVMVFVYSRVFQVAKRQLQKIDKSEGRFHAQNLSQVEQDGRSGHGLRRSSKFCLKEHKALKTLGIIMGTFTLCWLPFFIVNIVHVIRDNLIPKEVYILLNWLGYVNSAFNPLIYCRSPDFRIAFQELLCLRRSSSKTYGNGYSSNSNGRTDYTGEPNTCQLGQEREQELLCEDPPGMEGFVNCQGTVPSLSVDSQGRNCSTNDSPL
# Method: as §1
# The β2 -effect of the compounds was determined by their ability to inhibit the insulin-mediated incorporation of ^14 C-glucose into glycogen in isolated muscle. Soleus muscle from mice were dissected, tied at each end, and placed in a clamp to maintain tension. The clamped muscle was added to a vial that contained 2 ml of KHB with 1.5% bovine serum albumin, 0.3 mU/ml insulin, 5 mM (U^-14 C) glucose, and the appropriate additions of compound or vehicle. The vial was gassed with 95% O2 -5% CO2, capped, and the tissue incubated for one hour in a rotating water bath at 37° C. The muscle was then removed, rinsed in ice-cold saline, blotted and weighed. It was then added to 1 ml of 30% KOH containing 5 mg/ml of oyster glycogen, boiled for 10 minutes, and 0.4 ml of 2% Na2 SO4 and 3.2 ml of 100% ethanol added. After standing overnight at 4° C., the glycogen was pelleted by centrifugation, washed once with 66% ethanol, and repelleted. The pellet was dissolved in 1 ml of water and the amount of radioactivity present determined by liquid scintillation.
# ob/ob mice = assay: Plasma glucose, compound in chow, obese mice; assay type: in vivo, mouse (C57 B1/6J ob/ob)
# Method: (§2) The compounds of this invention were tested for hypoglycemic and anti-obesity activity according to the following procedure.
# (§3) Obese mice (C57 B1/6J (ob/ob)), and/or diabetic mice (C57 B1/KsJ (db/db)) were obtained from Jackson Laboratories, Bar Harbor, Maine. Obese rats (fa/fa) were obtained from Charles River Laboratories, Wilmington, Mass. Obese mice were 8 weeks of age and diabetic mice were 9 weeks of age at the start of the test. Obese rats were 12-14 weeks of age at the start.
# (§4) The test compounds were dissolved in methanol, mixed with powdered Purina rodent chow on a weight of compound to weight of chow basis and thoroughly dried.
# (§5) Groups of 6 control mice or rats received vehicle (methanol) treated chow.
# […] Thus, a 40 g mouse, fed the test compound at a concentration of 0.02 percent of the diet, would receive a dose of 20 mg/kg/day if it ate 4 g of chow per day.
# (§6) The mice or rats were weighed before the first treatment and once at the end of each indicated treatment period.
# (§7) Blood samples were collected before the first treatment and once at the end of each indicated treatment period by retro-orbital puncture using heparinized capillary tubes.
# (§8) Plasma was separated by centrifugation in a Beckman microfuge for 5 minutes. Plasma glucose concentrations were determined with the Beckman glucose analyzer which uses a glucose oxidase method.
# db/db mice = assay: Plasma glucose, compound in chow, diabetic mice; assay type: in vivo, mouse (C57 B1/KsJ db/db); conditions: dose 0.005 % wt of chow
# Method: as §2, §3, §4, §5
# Groups of 6 test mice were fed ad libitum for up to seven weeks and food consumption was measured daily by weighing the food bins before and after the addition of fresh chow. Thus, a 40 g mouse, fed the test compound at a concentration of 0.02 percent of the diet, would receive a dose of 20 mg/kg/day if it ate 4 g of chow per day.
# as §6, §7, §8
# β1-receptors = biological target: T3, β1-receptors (Cavia porcellus, UniProt H0W3H1); assay: Effect on heart rate of isolated right atria (β1-effect); set-up: species or system guinea pig; conditions: for β1 activity: CL1 vs BRL1 (FIG. 1), CL2 vs BRL2 (FIG. 2)
# T3 construct: from tissue; host or cells: guinea pig right atria
# T3 sequence (H0W3H1 1-470): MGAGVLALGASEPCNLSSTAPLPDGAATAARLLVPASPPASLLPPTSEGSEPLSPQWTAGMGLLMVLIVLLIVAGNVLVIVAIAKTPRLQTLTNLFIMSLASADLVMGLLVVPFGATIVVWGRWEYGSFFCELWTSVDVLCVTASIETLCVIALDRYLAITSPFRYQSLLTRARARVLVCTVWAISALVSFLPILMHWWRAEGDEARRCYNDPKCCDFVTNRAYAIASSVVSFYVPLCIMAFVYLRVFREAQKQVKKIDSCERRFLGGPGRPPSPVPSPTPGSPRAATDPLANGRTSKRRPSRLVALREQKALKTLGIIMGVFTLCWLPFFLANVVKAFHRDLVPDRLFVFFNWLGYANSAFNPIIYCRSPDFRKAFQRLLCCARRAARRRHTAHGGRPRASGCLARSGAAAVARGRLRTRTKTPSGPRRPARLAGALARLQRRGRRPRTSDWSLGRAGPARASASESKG
# Method: as §1
# Selectivity of a compound was determined using the following procedures. The effect on heart rate (β1 -effect) was determined using isolated right atria. […] The right atria were dissected and clamped at one end to a tissue holder and electrode assembly (MRA Corp.) and tied at the other end to a force-displacement transducer (Gould-Statham, Burco). The tissues were maintained at 32° C. in a 50 ml capacity glass chamber (MRA Corp.) preloaded with 0.5 g tension. Heart rate was monitored by a Grass polygragh. […] The increase in heart rate was calculated and considered to be the maximum response for that tissue. The tissues were then washed and allowed to equilibrate for 90 minutes. Cumulative concentration-response curves were then determined for each compound or vehicle. All responses were measured 5 minutes post-exposure.
# [1] = dose 0.005 % wt of chow, week 0 (before treatment)
# [2] = dose 0.005 % wt of chow, week 1
# [3] = dose 0.02 % wt of chow, week 0 (before treatment)
# [4] = dose 0.002 % wt of chow, week 0 (before treatment)
# [5] = dose 0.002 % wt of chow, week 1
smiles,measurement,setting,value
"COC(=O)C1(C(=O)OC)Oc2ccc(C[C@H](C)NC[C@@H](O)c3cccc(Cl)c3)cc2O1 (stereo in doubt) [CL6, (S,S)(+/-)5-(2-((2-(3-chlorophenyl)-2-hydroxyethyl)-amino)propyl)-1,3-benzodioxole-2,2-dicarboxylic acid, dimethyl ester hydrobomide]",EC50,β3-receptors; read-out: Lipolysis (β3) (EC50),290 nM
"COC(=O)COc1ccc(C[C@@H](C)NC[C@H](O)c2ccc(Cl)cc2)cc1 (relative stereo) [BRL1, (R*,R*)-(±)-(4-(2-((2-(4-chlorophenyl)-2-hydroxyethyl)amino)propyl)phenoxy)-acetic acid, methyl ester, reference compound]",EC50,β3-receptors,13 nM
same,β3 potency in comparison,"β3-receptors; CL1 vs BRL1 (FIG. 1), CL2 vs BRL2 (FIG. 2)",slightly greater β3 potency
same,Selectivity for Lipolysis over Atria ((EC50 - β1)/(EC50 - β3)),β3-receptors; ratio EC50 β1 / EC50 β3,15
same,Selectivity for Lipolysis over Gly. Syn. ((EC50 - β2)/(EC50 - β3)),β3-receptors; ratio EC50 β2 / EC50 β3,9
same,EC50,β2-receptors,120 nM
same,β2 activity,β2-receptors,more of the undesirable β1 and β2 activities than does CL1
same,Plasma Glucose Levels,"ob/ob mice; dose 0.0001 % wt of chow, week 0 (before treatment)",231 mg/100 ml
same,Plasma Glucose Levels,"ob/ob mice; dose 0.0001 % wt of chow, week 1",143 mg/100 ml
same,Plasma Glucose Levels,"ob/ob mice; dose 0.0001 % wt of chow, week 2",119 mg/100 ml
same,Plasma Glucose Levels,"ob/ob mice; dose 0.0005 % wt of chow, week 0 (before treatment)",232 mg/100 ml
same,Plasma Glucose Levels,"ob/ob mice; dose 0.0005 % wt of chow, week 1",140 mg/100 ml
same,Plasma Glucose Levels,"ob/ob mice; dose 0.0005 % wt of chow, week 2",126 mg/100 ml
same,Plasma Glucose Levels,ob/ob mice; [1],231 mg/100 ml
same,Plasma Glucose Levels,ob/ob mice; [2],137 mg/100 ml
same,Plasma Glucose Levels,"ob/ob mice; dose 0.005 % wt of chow, week 2",138 mg/100 ml
same,Plasma Glucose Levels,db/db mice; week 0 (before treatment),440 mg/100 ml
same,Plasma Glucose Levels,db/db mice; week 1,138 mg/100 ml
same,Plasma Glucose Levels,db/db mice; week 2,132 mg/100 ml
same,EC50,β1-receptors,200 nM
same,β1 activity,β1-receptors,more of the undesirable β1 and β2 activities than does CL1
"COC(=O)C1(C(=O)OC)Oc2ccc(C[C@@H](C)NC[C@H](O)c3cccc(Cl)c3)cc2O1 (stereo in doubt) [CL5, (R,R)(+/-)5-(2-((2-(3-chlorophenyl)-2-hydroxyethyl)-amino)propyl)-1,3-benzodioxole-2,2-dicarboxylic acid, dimethyl ester hydrobomide]",relative β3 potency of RR over SS form,"β3-receptors; RR vs SS enantiomer, lipolysis",36 fold
"COC(=O)C1(C(=O)OC)Oc2ccc(C[C@@H](C)NC[C@@H](O)c3cccc(Cl)c3)cc2O1 (relative stereo) [(R*,S*)-(+/-)-5(2-((2-(3-chlorophenyl))-2-hydroxyethyl)amino)propyl)-1,3-benzodioxole-2,2-dicarboxylic acid, dimethyl ester]",Plasma Glucose Levels,ob/ob mice; [1],218 mg/100 ml
same,Plasma Glucose Levels,"ob/ob mice; dose 0.005 % wt of chow, week 5",162 mg/100 ml
same,Plasma Glucose Levels,"ob/ob mice; dose 0.005 % wt of chow, week 10",174 mg/100 ml
same,Plasma Glucose Levels,ob/ob mice; [3],219 mg/100 ml
same,Plasma Glucose Levels,"ob/ob mice; dose 0.02 % wt of chow, week 5",135 mg/100 ml
same,Plasma Glucose Levels,"ob/ob mice; dose 0.02 % wt of chow, week 10",153 mg/100 ml
"C[C@@H](Cc1ccc2c(c1)OCO2)NC[C@H](O)c1cccc(Cl)c1 (relative stereo) [(R*,S*)-(+/-)-alpha-(((2-(1,3-benzodioxol-5-yl)-1-methylethyl)amino)methyl)-3-chlorobenzenemethanol, reference compound]",Plasma Glucose Levels,ob/ob mice; [4],228 mg/100 ml
same,Plasma Glucose Levels,ob/ob mice; [5],204 mg/100 ml
same,Plasma Glucose Levels,ob/ob mice; [1],226 mg/100 ml
same,Plasma Glucose Levels,ob/ob mice; [2],176 mg/100 ml
same,Plasma Glucose Levels,ob/ob mice; [3],229 mg/100 ml
same,Plasma Glucose Levels,"ob/ob mice; dose 0.02 % wt of chow, week 1",128 mg/100 ml
"C[C@H](Cc1ccc(OCC(=O)[O-])cc1)NC[C@H](O)c1cccc(Cl)c1.[Na+] (relative stereo) [BRL2, (R*,R*)(+/-)4-(2-((2-(3-chlorophenyl)-2-hydroxyethyl)amino)propyl)phenoxy-acetic acid, monosodium salt]",EC50,β2-receptors,800 nM
same,β2 activity,β2-receptors,full agonist with measurable activity at 1×10^-7M
same,EC50,β1-receptors,5600 nM
same,β1 activity,β1-receptors,significant β1 activity
"C[C@H](Cc1ccc2c(c1)OCO2)NC[C@H](O)c1cccc(Cl)c1 (racemic) [(R*,R*)-(+/-)-alpha-(((2-(1,3-benzodioxol-5-yl)-1-methylethyl)amino)methyl)-3-chlorobenzenemethanol mixture with (R*,S*)-(+/-)alpha-(((2-(1,3-benzodioxol-5-yl)-1-methylethyl)amino)methyl)-3-chlorobenzenemethanol, reference compound]",Plasma Glucose Levels,ob/ob mice; [4],226 mg/100 ml
same,Plasma Glucose Levels,ob/ob mice; [5],234 mg/100 ml
same,Plasma Glucose Levels,ob/ob mice; [1],227 mg/100 ml
same,Plasma Glucose Levels,ob/ob mice; [2],175 mg/100 ml
same,Plasma Glucose Levels,ob/ob mice; [3],227 mg/100 ml
same,Plasma Glucose Levels,"ob/ob mice; dose 0.02 % wt of chow, week 1",149 mg/100 ml
